# Source: patent publication US20120101167A1, “Treatment of ocular and cerebral ischemia” (priority 2010, published 2012)
# Experiments:
# glaucomatous monkeys = experiment: IOP and PBF responses in glaucomatous monkeys to a single topical unilateral application; type: in vivo, monkey; details: single topical unilateral 0.05 mg, four glaucomatous monkeys
# Description: (§1) 1. The Intraocular pressure and pulse form. The Langham pneumatic digitized tonometer was used to make continuous recordings of the intraocular pressure and its pulsatile character. This recording system provides the steady state IOP and the form of the IOP pulse with an accuracy equal to a manometric recording. The pulsatile ocular blood flow is evaluated from the amplitude of the individual pulses using the known pressure/volume relation of living human eyes. Langham, M. E., Farrell, R. A., O'Brien V., Silver, D. M., Non-Invasive Measurement of Pulsatile Ocular Blood Flow in the Human Eye (Eds., Lambrou G. N., Greve E.) pp. 93-99; Kugler and Ghedini, Amsterdam (1989).
# conscious rabbits = experiment: Time course of IOP and ocular pulsatile blood flow in conscious rabbits after single topical application; type: in vivo, rabbit; details: six conscious rabbits; for Intraocular Pressure (IOP), Treated / Pulsatile Blood flow, Treated: treated eye, single topical 0.025% aqueous solution pH 7.40; for Intraocular Pressure (IOP), Difference / Pulsatile Blood flow, Difference: treated minus control eye, single topical 0.025% solution
# Description: as §1
# healthy human subjects = experiment: Steady state IOP and pulsatile blood flow in healthy human subjects given repeated topical unilateral applications; type: in vivo; details: five healthy human subjects; for Intraocular Pressure (IOP), Treated / Pulsatile Blood flow, Treated: treated eye, 30 μl 0.025% solution topical unilateral at 0, 12, ... 96 hr; for Intraocular Pressure (IOP), Difference / Pulsatile Blood flow, Difference: treated minus control eye, 0.025% solution every 12 hr
# Description: as §1
# glaucoma patients = experiment: IOP, pulsatile blood flow, visual performance, relative scotomas and stability of differential light sensitivity in glaucoma patients under long-term topical treatment; type: in vivo, human
# Description: Elevated IOP is a risk factor associated with the development of glaucoma but it is not the disease itself. The recent recognition that a large percentage of glaucoma patients never experience elevated IOP has increased the possibility that the ocular hypotensive drug has the undesirable action of decreasing ocular blood flow. This possibility has been supported by numerous studies and confirmed in the prolonged longitudinal studies on individual glaucoma patents (Table 1). With increased ocular blood flow, the vision improved whilst with a drug having equal ocular hypotensive action, but causing decreased ocular blood flow run vision worsened. […] The Intraocular pressure and pulse form. The […] pneumatic digitized tonometer was used to make continuous recordings of the intraocular pressure and its pulsatile character. This recording system provides the steady state IOP and the form of the IOP pulse with an accuracy equal to a manometric recording. The pulsatile ocular blood flow is evaluated from the amplitude of the individual pulses using the known pressure/volume relation of living human eyes. […]'Brien V., Silver, D. M., Non-Invasive Measurement of Pulsatile Ocular Blood Flow in the Human […] and […], Amsterdam (1989).
# [1] = difference clonidine treatment minus timolol treatment, five glaucoma patients
# [2] = five glaucoma patients, topical 0.25% clonidine b.i.d., years 6, 7 and 8 (after timolol)
# [3] = difference timolol treatment minus prior, five glaucoma patients
# [4] = five glaucoma patients, topical timolol 0.25-0.50% b.i.d., years 3, 4 and 5
compound,measurement,setting,value
"CN[C@H](C)[C@@H](O)c1ccc(OC(=O)C(C)(C)C)c(OC(=O)C(C)(C)C)c1 (single isomer, unassigned) [(+) erythro isomer of DPαMeEp, reference compound]","Intraocular Pressure (IOP), Treated","glaucomatous monkeys; Table 5, treated eye, 0 hr",36.8 ± 1.94 mmHg
same,"Pulsatile Blood flow, Treated","glaucomatous monkeys; Table 5, treated eye, 0 hr",564 ± 16 µL/min
same,"Intraocular Pressure (IOP), Treated","glaucomatous monkeys; Table 5, treated eye, 1 hr",36.3 ± 3.17 mmHg
same,"Pulsatile Blood flow, Treated","glaucomatous monkeys; Table 5, treated eye, 1 hr",555 ± 26 µL/min
same,"Intraocular Pressure (IOP), Treated","glaucomatous monkeys; Table 5, treated eye, 3 hr",35.0 ± 2.28 mmHg
same,"Pulsatile Blood flow, Treated","glaucomatous monkeys; Table 5, treated eye, 3 hr",575 ± 22 µL/min
same,"Intraocular Pressure (IOP), Treated","glaucomatous monkeys; Table 5, treated eye, 6 hr",36.8 ± 3.31 mmHg
same,"Pulsatile Blood flow, Treated","glaucomatous monkeys; Table 5, treated eye, 6 hr",564 ± 23 µL/min
same,"Intraocular Pressure (IOP), Treated","glaucomatous monkeys; Table 5, treated eye, 24 hr",34.6 ± 2.76 mmHg
same,"Pulsatile Blood flow, Treated","glaucomatous monkeys; Table 5, treated eye, 24 hr",549 ± 27 µL/min
"CN[C@@H](C)[C@H](O)c1ccc(OC(=O)C(C)(C)C)c(OC(=O)C(C)(C)C)c1 (single isomer, unassigned) [(−) erythro isomer of DPαMeEp, dipivalyl α MeEp]","Intraocular Pressure (IOP), Treated",conscious rabbits; 0 hr,19.4 ± 0.7 mmHg
same,"Pulsatile Blood flow, Treated",conscious rabbits; 0 hr,651 ± 28 µL/min
same,"Intraocular Pressure (IOP), Treated",conscious rabbits; 1 hr,13.0 ± 0.5 mmHg
same,"Pulsatile Blood flow, Treated",conscious rabbits; 1 hr,880 ± 32 µL/min
same,"Intraocular Pressure (IOP), Treated",conscious rabbits; 3 hr,12.8 ± 0.4 mmHg
same,"Pulsatile Blood flow, Treated",conscious rabbits; 3 hr,957 ± 33 µL/min
same,"Intraocular Pressure (IOP), Treated",conscious rabbits; 5 hr,13.8 ± 0.4 mmHg
same,"Pulsatile Blood flow, Treated",conscious rabbits; 5 hr,963 ± 30 µL/min
same,"Intraocular Pressure (IOP), Treated",conscious rabbits; 12 hr,15.6 ± 0.6 mmHg
same,"Pulsatile Blood flow, Treated",conscious rabbits; 12 hr,924 ± 29 µL/min
same,"Intraocular Pressure (IOP), Treated",conscious rabbits; 24 hr,19.7 ± 0.7 mmHg
same,"Pulsatile Blood flow, Treated",conscious rabbits; 24 hr,682 ± 41 µL/min
same,"Intraocular Pressure (IOP), Difference",conscious rabbits; 0 hr,−0.1 ± 0.1 mmHg
same,"Pulsatile Blood flow, Difference",conscious rabbits; 0 hr,3 ± 3 µL/min
same,"Intraocular Pressure (IOP), Difference",conscious rabbits; 1 hr,−6.4 ± 0.3 mmHg
same,"Pulsatile Blood flow, Difference",conscious rabbits; 1 hr,255 ± 24 µL/min
same,"Intraocular Pressure (IOP), Difference",conscious rabbits; 3 hr,−6.5 ± 0.4 mmHg
same,"Pulsatile Blood flow, Difference",conscious rabbits; 3 hr,332 ± 29 µL/min
same,"Intraocular Pressure (IOP), Difference",conscious rabbits; 5 hr,−5.3 ± 0.4 mmHg
same,"Pulsatile Blood flow, Difference",conscious rabbits; 5 hr,328 ± 24 µL/min
same,"Intraocular Pressure (IOP), Difference",conscious rabbits; 12 hr,−3.9 ± 0.3 mmHg
same,"Pulsatile Blood flow, Difference",conscious rabbits; 12 hr,290 ± 31 µL/min
same,"Intraocular Pressure (IOP), Difference",conscious rabbits; 24 hr,0 ± 0 mmHg
same,"Pulsatile Blood flow, Difference",conscious rabbits; 24 hr,10 ± 4 µL/min
same,"Intraocular Pressure (IOP), Treated",healthy human subjects; 0 hr,15.5 ± 0.5 mmHg
same,"Pulsatile Blood flow, Treated",healthy human subjects; 0 hr,675 ± 35 µL/min
same,"Intraocular Pressure (IOP), Treated",healthy human subjects; 2 hr,12.0 ± 0.7 mmHg
same,"Pulsatile Blood flow, Treated",healthy human subjects; 2 hr,818 ± 30 µL/min
same,"Intraocular Pressure (IOP), Treated",healthy human subjects; 6 hr,13.2 ± 9.2 mmHg
same,"Pulsatile Blood flow, Treated",healthy human subjects; 6 hr,802 ± 17 µL/min
same,"Intraocular Pressure (IOP), Treated",healthy human subjects; 12 hr,14.0 ± 0.4 mmHg
same,"Pulsatile Blood flow, Treated",healthy human subjects; 12 hr,780 ± 15 µL/min
same,"Intraocular Pressure (IOP), Treated",healthy human subjects; 24 hr,15.0 ± 0.4 mmHg
same,"Pulsatile Blood flow, Treated",healthy human subjects; 24 hr,758 ± 30 µL/min
same,"Intraocular Pressure (IOP), Treated",healthy human subjects; 28 hr,12.4 ± 0.5 mmHg
same,"Pulsatile Blood flow, Treated",healthy human subjects; 28 hr,790 ± 34 µL/min
same,"Intraocular Pressure (IOP), Treated",healthy human subjects; 52 hr,12.8 ± 0.4 mmHg
same,"Pulsatile Blood flow, Treated",healthy human subjects; 52 hr,764 ± 14 µL/min
same,"Intraocular Pressure (IOP), Treated",healthy human subjects; 78 hr,11.8 ± 0.5 mmHg
same,"Pulsatile Blood flow, Treated",healthy human subjects; 78 hr,832 ± 24 µL/min
same,"Intraocular Pressure (IOP), Treated",healthy human subjects; 100 hr,12.7 ± 0.4 mmHg
same,"Pulsatile Blood flow, Treated",healthy human subjects; 100 hr,812 ± 15 µL/min
same,"Intraocular Pressure (IOP), Difference",healthy human subjects; 0 hr,0 ± 0.1 mmHg
same,"Pulsatile Blood flow, Difference",healthy human subjects; 0 hr,4 ± 6 µL/min
same,"Intraocular Pressure (IOP), Difference",healthy human subjects; 2 hr,−3.4 ± 3.4 mmHg
same,"Pulsatile Blood flow, Difference",healthy human subjects; 2 hr,127 ± 27 µL/min
same,"Intraocular Pressure (IOP), Difference",healthy human subjects; 6 hr,−2.6 ± 2.6 mmHg
same,"Pulsatile Blood flow, Difference",healthy human subjects; 6 hr,131 ± 14 µL/min
same,"Intraocular Pressure (IOP), Difference",healthy human subjects; 12 hr,−1.8 ± 1.1 mmHg
same,"Pulsatile Blood flow, Difference",healthy human subjects; 12 hr,104 ± 12 µL/min
same,"Intraocular Pressure (IOP), Difference",healthy human subjects; 24 hr,−0.6 ± 0.3 mmHg
same,"Pulsatile Blood flow, Difference",healthy human subjects; 24 hr,82 ± 7 µL/min
same,"Intraocular Pressure (IOP), Difference",healthy human subjects; 28 hr,2.9 ± 0.4 mmHg
same,"Pulsatile Blood flow, Difference",healthy human subjects; 28 hr,132 ± 19 µL/min
same,"Intraocular Pressure (IOP), Difference",healthy human subjects; 52 hr,−2.7 ± 0.6 mmHg
same,"Pulsatile Blood flow, Difference",healthy human subjects; 52 hr,110 ± 24 µL/min
same,"Intraocular Pressure (IOP), Difference",healthy human subjects; 78 hr,−3.7 ± 0.4 mmHg
same,"Pulsatile Blood flow, Difference",healthy human subjects; 78 hr,156 ± 8 µL/min
same,"Intraocular Pressure (IOP), Difference",healthy human subjects; 100 hr,3.3 ± 0.4 mmHg
same,"Pulsatile Blood flow, Difference",healthy human subjects; 100 hr,138 ± 8.5 µL/min
same,"Intraocular Pressure (IOP), Treated","glaucomatous monkeys; Table 4, treated glaucomatous eye, 0 hr",33.4 ± 1.94 mmHg
same,"Intraocular Pressure (IOP), Treated","glaucomatous monkeys; Table 4, treated glaucomatous eye, 1 hr",26.3 ± 3.17 mmHg
same,"Intraocular Pressure (IOP), Treated","glaucomatous monkeys; Table 4, treated glaucomatous eye, 3 hr",21.7 ± 3.77 mmHg
same,"Intraocular Pressure (IOP), Treated","glaucomatous monkeys; Table 4, treated glaucomatous eye, 8 hr",21.9 ± 3.31 mmHg
same,"Intraocular Pressure (IOP), Treated","glaucomatous monkeys; Table 4, treated glaucomatous eye, 10 hr",22.1 ± 2.76 mmHg
same,"Intraocular Pressure (IOP), Treated","glaucomatous monkeys; Table 4, treated glaucomatous eye, 12 hr",21.8 ± 2.61 mmHg
same,"Intraocular Pressure (IOP), Treated","glaucomatous monkeys; Table 4, treated glaucomatous eye, 24 hr",24.6 ± 2.37 mmHg
same,"Intraocular Pressure (IOP), Treated","glaucomatous monkeys; Table 4, treated glaucomatous eye, 26 hr",26.3 ± 2.16 mmHg
same,"Intraocular Pressure (IOP), Treated","glaucomatous monkeys; Table 4, treated glaucomatous eye, 28 hr",25.0 ± 2.09 mmHg
same,"Intraocular Pressure (IOP), Treated","glaucomatous monkeys; Table 4, treated glaucomatous eye, 30 hr",25.0 ± 2.28 mmHg
same,"Intraocular Pressure (IOP), Treated","glaucomatous monkeys; Table 4, treated glaucomatous eye, 36 hr",27.3 ± 2.09 mmHg
"Clc1cccc(Cl)c1N=C1NCCN1 [Clonidine, clonidine]","IOP, Clon-Timolol",glaucoma patients; [1],−0.8 ± 0.5 mmHg
same,"PBF, Clon-Timolol",glaucoma patients; [1],192 ± 71 µL/min
same,"Vis. P. (visual performance), Clon-Timolol",glaucoma patients; [1],31 ± 9
same,IOP,glaucoma patients; [2],20.0 ± 1.0 mmHg
same,PBF,glaucoma patients; [2],557 ± 30 µL/min
same,Rel. Scot (relative scotomas),glaucoma patients; [2],3
same,Vis. P. (visual performance),glaucoma patients; [2],564 ± 30
same,"Stability of the differential light sensitivity, Clon-Timolol","glaucoma patients; number of the five glaucoma patients, clonidine treatment versus timolol treatment",5 improved
same,Stability of the differential light sensitivity,"glaucoma patients; number of the five glaucoma patients, topical 0.25% clonidine b.i.d., years 6, 7 and 8",5 improved
"CC(C)(C)NC[C@H](O)COc1nsnc1N1CCOCC1 [Timolol, timolol]","IOP, Tim-Prior",glaucoma patients; [3],−3.1 ± 0.6 mmHg
same,"PBF, Tim-Prior",glaucoma patients; [3],-177 ± 33 µL/min
same,"Vis. P. (visual performance), Tim-Prior",glaucoma patients; [3],−116 ± 2
same,IOP,glaucoma patients; [4],20.8 ± 0.6 mmHg
same,PBF,glaucoma patients; [4],365 ± 20 µL/min
same,Rel. Scot (relative scotomas),glaucoma patients; [4],3
same,Vis. P. (visual performance),glaucoma patients; [4],533 ± 20
same,"Stability of the differential light sensitivity, Tim-Prior","glaucoma patients; number of the five glaucoma patients, timolol treatment versus prior",5 decreased
same,Stability of the differential light sensitivity,"glaucoma patients; number of the five glaucoma patients, topical timolol 0.25-0.50% b.i.d., years 3, 4 and 5",5 decreased
